Reference: patent US20080261994A1, “CYCLOPROPANE COMPOUNDS AND PHARMACEUTICAL USE THEREOF” (Japan Tobacco Inc., priority 2003, published 2008)
Like-named read-outs stand apart in the source and are kept apart here.

Columns and labels:
Assay type in all cases: biochemical
[1] = target: T1, Recombinant Human MMP-13 (Homo sapiens, UniProt P45452); experiment: MMP-13 inhibitory activity (MMP-13 specific fluorescent substrate with quencher)
T1 construct: purchased R&D systems 511-MM
Summary of the method: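 Recombinant human MMP-13 with test compound, reaction started with quenched fluorogenic peptide 7-MCA-Pro-CHA-Gly-NVal-His-Ala-DPA in Tris-HCl buffer, 1 h at 25 °C, stopped with acetic acid. Fluorescence at Ex 325/Em 405 nm; % inhibition versus enzyme-free and inhibitor-free wells, reported as IC50 (μM).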

[2] = target: T2, MMP-1 (Homo sapiens, UniProt P03956); experiment: MMP-1 inhibitory action (Type I collagen Activity Measurement kit, FITC-labeled collagen type I)
T2 sequence (P03956 100-469): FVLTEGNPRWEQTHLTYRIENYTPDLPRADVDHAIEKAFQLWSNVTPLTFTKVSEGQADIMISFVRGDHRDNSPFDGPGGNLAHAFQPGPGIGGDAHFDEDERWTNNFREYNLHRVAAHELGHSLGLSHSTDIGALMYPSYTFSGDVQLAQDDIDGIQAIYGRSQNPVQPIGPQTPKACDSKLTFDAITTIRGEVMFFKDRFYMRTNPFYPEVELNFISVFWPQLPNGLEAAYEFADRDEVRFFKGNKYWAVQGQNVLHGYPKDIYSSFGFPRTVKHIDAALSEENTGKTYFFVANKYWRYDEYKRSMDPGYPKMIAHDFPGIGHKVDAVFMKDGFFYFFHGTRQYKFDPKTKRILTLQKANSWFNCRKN

[3] = target: T3, aggrecanase-1 (Homo sapiens, UniProt O75173); experiment: Aggrecanase-1 inhibitory action (Particle Assay, GAG release from aggrecan-containing polyacrylamide particles)
T3 sequence (O75173 213-837): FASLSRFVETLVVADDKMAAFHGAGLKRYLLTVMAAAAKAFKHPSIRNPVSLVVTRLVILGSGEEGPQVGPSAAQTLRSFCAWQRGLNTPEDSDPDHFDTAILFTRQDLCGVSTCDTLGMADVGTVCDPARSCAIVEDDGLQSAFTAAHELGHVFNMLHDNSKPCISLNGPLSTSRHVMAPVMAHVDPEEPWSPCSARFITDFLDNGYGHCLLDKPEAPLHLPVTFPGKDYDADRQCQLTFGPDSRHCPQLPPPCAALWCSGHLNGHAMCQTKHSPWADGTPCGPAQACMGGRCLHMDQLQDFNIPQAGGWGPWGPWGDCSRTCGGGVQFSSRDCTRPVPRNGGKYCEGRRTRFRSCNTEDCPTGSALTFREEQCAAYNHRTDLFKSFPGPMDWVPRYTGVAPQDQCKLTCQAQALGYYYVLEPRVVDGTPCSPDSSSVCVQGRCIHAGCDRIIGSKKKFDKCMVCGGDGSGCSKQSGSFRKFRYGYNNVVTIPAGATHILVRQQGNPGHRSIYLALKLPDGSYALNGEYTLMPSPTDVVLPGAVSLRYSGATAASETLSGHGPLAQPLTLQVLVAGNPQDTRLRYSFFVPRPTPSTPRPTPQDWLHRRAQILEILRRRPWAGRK
Summary of the method: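 Enzyme and compound incubated with aggrecan-containing polyacrylamide particles in Tris-HCl buffer at 37° C for 15 h. Released GAG in supernatant measured with 1,9-dimethylmethylene blue at 595 nm against chondroitin sulfate standard; % inhibition from enzyme-free and inhibitor-free wells, reported as TC50 (μM).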

[4] = Experimental Example 3, read-out: IC50 MMP13
[5] = Experimental Example 2, read-out: IC50 MMP1
[6] = Experimental Example 1, read-out: IC50 AG1
[7] = Recombinant Human MMP-13, fluorescent substrate, 25° C. for 1 h, read-out: IC50 MMP13 (Experimental Example 3)
[8] = MMP-1 inhibitory action, FITC-labeled collagen type I, 37° C. for 3 hr, read-out: IC50 MMP1 (Experimental Example 2)
[9] = aggrecanase-1 inhibitory action, read-out: IC50 AG1 (Experimental Example 1)

Row | Compound | IC50 [1, 4] [nM] | IC50 [2, 5] [nM] | IC50 [3, 6] [nM] | IC50 [1, 7] [nM] | IC50 [2, 8] [nM] | IC50 [3, 9] [nM]
1 | C[C@]1(c2ccccc2)C[C@@]1(NS(=O)(=O)c1ccc(-c2cc(C(F)F)no2)s1)C(=O)O [Example 2-422] | < 1000 | < 1000 | < 100 |  |  | 
2 | CC(C)N1CCN(Cc2cccc([C@H]3C[C@@]3(NS(=O)(=O)c3ccc(-c4cc(C(F)(F)F)on4)s3)C(=O)O)c2)CC1 [Example 2-304] | < 1000 | ≥ 1000 | < 1000 |  |  | 
3 | O=C(O)C1(NS(=O)(=O)N2CCN(Cc3ccccc3)CC2)CC1c1ccccc1 (stereo not drawn) [Example 2-158] |  |  |  | ≥ 10000 | ≥ 10000 | ≥ 10000
4 | CC(C)N1CCN(c2ccc(S(=O)(=O)N[C@@]3(C(=O)O)C[C@]3(C)c3ccccc3)s2)CC1 [Example 2-443] | ≥ 1000 | ≥ 10000 | ≥ 1000 |  |  | 
5 | CC(C)(O)C#Cc1ccc(S(=O)(=O)N[C@@]2(C(=O)O)C[C@@H]2c2ccccc2)s1 [Example 2-130] |  |  |  | ≥ 1000 | ≥ 10000 | ≥ 1000
6 | O=C(NCC1(c2ccccc2)CC1(NS(=O)(=O)c1ccc(-c2ccc(Cl)cc2)s1)C(=O)O)N1CCOCC1 (stereo not drawn) [Example 2-381] | < 1000 | ≥ 10000 | < 1000 |  |  | 
7 | O=C(Cc1cccc(C2CC2(NS(=O)(=O)c2ccc(-c3cc(C(F)(F)F)on3)s2)C(=O)O)c1)N1CCC(O)CC1 (stereo not drawn) [Example 2-222] |  |  |  | < 100 | ≥ 1000 | < 100
8 | CC1[C@H](c2ccccc2)[C@]1(NS(=O)(=O)c1cn2cc(Cn3cc(Cl)cn3)nc2s1)C(=O)O (stereo partly drawn) [Example 2-520] | ≥ 1000 | ≥ 1000 | ≥ 1000 |  |  | 
9 | O=C(O)C1(NS(=O)(=O)c2ccc(-c3ccc(Cl)cc3)s2)CC1(CNCc1nccs1)c1ccccc1 (stereo not drawn) [Example 2-393] | < 100 | ≥ 1000 | < 1000 |  |  | 
10 | O=C(O)C1(NS(=O)(=O)c2ccc(-c3ccc(Cl)cc3)s2)CC1(CSCCO)c1ccccc1 (stereo not drawn) [Example 2-345] | < 1000 | ≥ 10000 | < 100 |  |  | 
11 | O=C(O)C1(NS(=O)(=O)c2ccc(-c3ccc(Cl)cc3)s2)CC1c1cccc(CO)c1 (stereo not drawn) [Example 1-134] |  |  |  | < 100 | ≥ 1000 | < 100
12 | CC1[C@H](c2ccccc2)[C@]1(NS(=O)(=O)c1ccc2c(c1)Cc1cc(Cl)ccc1-2)C(=O)O (stereo partly drawn) [Example 2-569] | < 100 | < 1000 | < 100 |  |  | 
13 | Cc1cn(-c2ccc(S(=O)(=O)N[C@@]3(C(=O)O)C(C)[C@@H]3c3ccccc3)s2)cn1 (stereo partly drawn) [Example 2-367] | ≥ 1000 | ≥ 10000 | ≥ 1000 |  |  | 
14 | CSCC1(c2ccccc2)CC1(NS(=O)(=O)c1ccc(-c2ccc(Cl)cc2)s1)C(=O)O (stereo not drawn) [Example 2-432] | < 1000 | ≥ 1000 | < 100 |  |  | 
15 | O=C(O)[C@]1(NS(=O)(=O)c2ccc(-c3nc(C(F)(F)F)cs3)s2)C[C@@H]1c1ccccc1 [Example 2-60] |  |  |  | ≥ 1000 | ≥ 10000 | ≥ 10000
16 | O=C(O)C1(NS(=O)(=O)c2ccc(-c3ccc(Cl)cc3)s2)CC1c1cccc(CCO)c1 (stereo not drawn) [Example 2-109] |  |  |  | < 100 | ≥ 10000 | < 100
17 | O=C(O)[C@]1(NS(=O)(=O)c2ccc(-c3noc4c3CCCC4)s2)C[C@@H]1c1ccccc1 [Example 2-154] |  |  |  | < 1000 | ≥ 10000 | ≥ 1000
18 | O=C(O)[C@]1(NS(=O)(=O)c2ccc(-n3cc(Br)cn3)s2)C[C@@H]1c1ccccc1 [Example 2-605] | ≥ 1000 | ≥ 10000 | ≥ 1000 |  |  | 
19 | Cc1nc(-c2ccc(S(=O)(=O)NC3(C(=O)O)CC3c3ccccc3)s2)c(Cl)o1 (stereo not drawn) [Example 2-88] |  |  |  | ≥ 10000 | ≥ 10000 | ≥ 10000
